Data set [1] is described as follows: Aqueous solubility of modafinil, alone and in HPβCD solutions. In kind it is physicochemical. Particulars: thermodynamic from solid. On the procedure:
The following HPLC method may be used to measure the modafinil compound content in the compositions. Filter a solution saturated with a modafinil compound through a 1.2 μm syringe filter. Dilute 10 μL of the clear solution to 1 mL with 990 μL of dimethylsulfoxide (Fischer Certified ACS grade). Take 10 μL of the diluted solution for the HPLC analysis, with the following representative column conditions: • Flow rate: 1.2 mL/min. • Column: ODS, 4.6×20 mm, Column Temp: 30° C. • Mobil phase: 80%(65% Acetonitrile/35%1M phosphate buffer) 20% water • Analysis time: 5 minutes • Wavelength: 222 nanometers
Concentration can be calculated by comparison to area from a modafinil compound standard used at 0.4 mg/mL with appropriate dilution.

A further data set has as its system mice. Conditions: single administration; cited from earlier work.
For another data set, the system named is monkeys. Conditions: single administration; cited from earlier work.

≈ marks a conversion by molar mass, not a printed value. Like-named read-outs stand apart in the source and are kept apart here.

For the compound `NC(=O)C[S+]([O-])C(c1ccccc1)c1ccccc1` (stereo not drawn) [modafinil, 2-(benzhydryl-sulfinyl)acetamide], the solubility in data set [1] (aqueous with cosolvent or surfactant or cyclodextrin, 2% HPβCD solution, from 1:1 complex, read-out: amount solubilized) is approximately 4.4 mg/mL (≈ 16.1 mM); in data set [1] (aqueous with cosolvent or surfactant or cyclodextrin, 20% HPβCD solution, from 1:1 complex, read-out: amount solubilized), approximately 39.5 mg/mL (≈ 144 mM); in data set [1] (aqueous with cosolvent or surfactant or cyclodextrin, 40% HPβCD solution, from 1:1 complex, read-out: amount solubilized), approximately 78.4 mg/mL (≈ 287 mM); in data set [1] (water without cyclodextrin, water, read-out: aqueous solubility) it was 0.44 mg/mL (≈ 1.61 mM). For the same compound, the locomotor activity result in the data set with mice is reported as “increased locomotor activity”. In the data set with monkeys, the nocturnal activity result is “increased nocturnal activity”.
